Source: PMC8468767, “Optimisation of a Microfluidic Method for the Delivery of a Small Peptide” (Pharmaceutics, 2021)
Values after ≈ are worked out from the molar mass of the structure shown. Values joined by “and” are separate entries in the source; they are usually repeats but may differ in a detail not shown here. Identical values can stand only once. Bridge positions count the residues as written; N and C are the ends. Square brackets hold non-standard residues; d marks the D form. Peptide text beside a SMILES is read from it. * marks the point of attachment. Hydrocinnamoyl = O=C(CCc1ccccc1)*; dCha = N[C@H](CC1CCCCC1)C(=O)O; Orn = NCCC[C@H](N)C(=O)O

Key:
[1] = mice, cited from earlier work
From the text: The hexapeptide, phenylpropanoic acid-[ornithine-proline-d-cyclohexylalanine-tryptophan-arginine] (HC-[OPdChaWR]) is an antagonist of the C5a receptor 1 (C5aR1) of the innate immune complement cascade.

[2] = Plasma pharmacokinetics after a single IV dose in mice; format: in vivo; settings: male C57BL/6J mice, LC-MS/MS
Procedure: The C5aR1 peptide antagonist concentrations were quantified by a previously developed and validated LC–MS/MS method. Briefly, the LC–MS/MS system consisted of an API 3200 (AB SCIEX) triple quadrupole LC–MS/MS mass spectrometer coupled with an Agilent 1200 series HPLC system (Agilent Technologies, Santa Clara CA, USA). For sample processing, 10 µL of the solution containing the C5aR1 peptide antagonist was mixed with 10 µL of internal standard (AcF-[OPdChaWR]) dissolved in solvent (ACN) followed by sample processing, extraction, supernatant isolation, drying, and reconstitution in a 75% methanol-in-water solution. A small volume of processed sample (approximately 50 µL) was used for the LC–MS measurement. The autosampler was set at 4 °C and the column oven temperature was maintained in the range of 25 ± 1 °C. The system control and data acquisition were executed by Analyst software (AB SCIEX, Applied Biosystems Inc., Framingham, MA, USA, version 1.5.1). Chromatographic separation was implemented using a Kinetex EVO C18 analytical column (100 mm × 2.1 mm, 100 Å, 5 µm, Phenomenex Inc., Torrance, CA, USA) under binary gradient conditions using mobile phase A (milliQ water containing 0.1% formic acid) and mobile phase B (acetonitrile containing 0.1% formic acid) with a variable flow rate, as described in Kumar et al..
The plasma pharmacokinetic (PK) profile and biodistribution of peptide-loaded nanoparticles (1 mg/kg equivalent dose of free peptide) vs. free peptide were assessed in mice after intravenous (IV; via tail vein) dosing. Serial blood samples were collected via a tail vein using a microsampling technique. Blood samples were collected at 0.04, 0.25, 0.5, 0.75, 1, 1.5, […], 4, 6, and 24 h for both groups and then 48, 72, 96, and 120 h for the nanoparticle group. The blood samples were centrifuged at 2000× g for 10 min at 4 °C, and the separated plasma samples (10 µL) were collected, diluted with 100 µL of milliQ water and 10 µL of internal standard, filtered through Microcon®-10 centrifugal filters (Merck, Melbourne, VIC, Australia) to separate nanoparticles from released peptide, and stored at −80 °C until time of analysis. For tissue distribution, on the terminal day, i.e., day 1 for native peptide and day 5 for the nanoparticle group, animals were transcardially perfused using PBS solution to remove circulatory peptide/formulation, and tissue samples were collected, processed as described in our previously published method, and filtered as mentioned above.
On the day of analysis, samples were processed for C5aR1 peptide antagonist concentrations using the above-mentioned LC–MS/MS method as described previously. […]

[3] = Solubility of the peptide in water; format: physicochemical; settings: method not described

For `N=C(N)NCCC[C@@H]1NC(=O)[C@H](Cc2c[nH]c3ccccc23)NC(=O)[C@@H](CC2CCCCC2)NC(=O)[C@@H]2CCCN2C(=O)[C@@H](NC(=O)CCc2ccccc2)CCCNC1=O` [HC-[OPdChaWR], phenylpropanoic acid-[ornithine-proline-d-cyclohexylalanine-tryptophan-arginine]] (Hydrocinnamoyl-[Orn]P[dCha]WR; lactam 1-C), the “plasma half-life in vivo” value ([1]; intravenous (IV) injection) is listed as 10.2 min, the “t1/2 values reported previously” value ([1]; listed as free peptide) is listed as 10.2 min and 19.8 min and the “time for which plasma peptide levels are measurable after dosing” value ([2]; single IV 1 mg/kg peptide equivalent, plasma) is listed as “unmeasurable after 6 h post-dosing”. For the same compound, the MRT ([2]; mouse, single IV 1 mg/kg peptide equivalent, plasma, two-compartmental model, n = 4, read-out: mean residence time (MRT)) was 45.6 min, the AUC(0-t) ([2]; mouse, single IV 1 mg/kg, plasma, linear trapezoidal rule, n = 4, read-out: systemic exposure (AUC0-t)) was 3830 ng·h/mL and the half-life ([2]; mouse, single IV (tail vein) 1 mg/kg peptide equivalent, plasma filtered (Microcon-10) so released peptide is measured, two-compartmental model, n = 4, read-out: terminal elimination half-life (t1/2) (converted)) was 50.4 min. It also gave a solubility in water [3] of 1000 µg/mL (≈ 1190 µM).
